The source made the active and inactive calls. The rule behind the calls is not given here.
System: T. cruzi-infected H9C2 cardiomyocytes, high-content imaging
Experiment: intracellular T. cruzi amastigote inhibition, imaging, H9C2 host cardiomyocytes, host toxicity (AID 1159565);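 note: infected cells incubated 72 h after plating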
[1] = measured here: H9C2 host cell toxicity
[2] = measured here: amastigotes per cell

| Compound | IC50 | IC50 [1] [nM] | IC50 [2] [nM] |
| --- | --- | --- | --- |
| CCN(CC)S(=O)(=O)c1ccc(C(=O)Nc2cc(C)nn2-c2nc(C)c(C)c(=O)[nH]2)cc1 | 1600 nM | > 50000 | 320 |
| COc1ccc2c(Cl)c(C(=O)N3CCC3)sc2c1Cl | 2500 nM | > 50000 | 790 |
| CCCCNc1nccc(-c2c(-c3ccc(F)cc3)nn3c(N4CCOCC4)cccc23)n1 | 3200 nM | > 50000 | 1000 |
| O=C(NC(c1ccc(Cl)cc1)c1cnccn1)C1CCN(C(=O)Nc2cccc(C(F)(F)F)c2)CC1 (stereo not drawn) | 630 nM | > 50000 | 500 |
| Cc1cc(C)c(C#N)c(SCC(=O)c2ccc3c(c2)OCO3)n1 | 790 nM | > 50000 | 400 |
| CS(=O)(=O)c1ccc(CC(=O)Nc2nc(-c3ccc(Cl)s3)cs2)cc1 | 320 nM | 16000 | 400 |
| O=C(NCc1ccc(-n2cccc2)cc1)c1nc(Cn2ccc([N+](=O)[O-])n2)no1 | 2500 nM | > 50000 | 1300 |
| O=C(c1cnn(-c2ccccc2)n1)N1CCCC(n2ccnc2)C1 (stereo not drawn) | 79 nM | > 50000 | 63 |
| CNC(=O)Oc1ccc(C(=O)NCc2ccccc2)cc1OC(=O)NC | 40000 nM | > 50000 | 40000 |
| Cc1nn(-c2nc(N)nc(-c3ccccn3)n2)c(N)c1-c1ccccc1 | 5000 nM | 13000 | 1300 |
| O=C(Nc1ccc(Br)cn1)c1ccc(Cn2cnc([N+](=O)[O-])n2)cc1 | 130 nM | > 50000 | 79 |
| Cc1cc2cc(CNc3ccc4c(c3)OCO4)c(=O)n(CCO)c2cc1C | 250 nM | > 50000 | 200 |
| COc1ncc(-c2ccc3ncnc(N4CCOCC4)c3c2)cc1NS(C)(=O)=O | 6300 nM | 1600 | 2500 |
| O=C(NCCc1cccnc1)c1ccc(-c2ccccc2F)o1 | 200 nM | > 50000 | 200 |
| CCS(=O)(=O)c1cccc(C(=O)Nc2nc(-c3ccccn3)cs2)c1 | 2500 nM | 4000 | 1600 |
| CC(C)CC(=O)NC(c1cccs1)c1ccc2cccnc2c1O (stereo not drawn) | 1300 nM | 2000 | 790 |
| Cc1cc(C#N)c([N+](=O)[O-])cc1Br | 320 nM | 50000 | 50 |
| O=C(NCCc1csc(-c2ccc(F)cc2)n1)c1ccco1 | 1600 nM | > 50000 | 1300 |
| N#Cc1ccccc1S(=O)(=O)N1CCN(C(=O)CNC(=O)c2ccc3c(c2)OCO3)CC1 | 1000 nM | > 50000 | 630 |
| CC(C)(C)CC(=O)NCc1noc(COc2ccccc2)n1 | 2500 nM | > 50000 | 2500 |
| O=C(c1ccc(Cl)cc1)c1ccc(OC(=O)N2CCOCC2)cc1 | > 50000 nM (inactive) | > 50000 | 6300 |
| CNc1cncc(C2CCCN2C(=O)Cc2ccc3ccccc3c2)n1 (stereo not drawn) | 160 nM | > 50000 | 160 |
| O=C(Nc1cccc(Cl)c1)Nc1ccc([N+](=O)[O-])cc1Cl | 2000 nM | 4000 | 1600 |
| Cc1cc(NC(=O)CC2CCCCC2)n(-c2nc3c(c(=O)[nH]2)CCC3)n1 | 320 nM | 4000 | 130 |

| Compound | IC50 | IC50 [1] [nM] | IC50 [2] [nM] |
| --- | --- | --- | --- |
| CCC(=O)Nc1ccc(C(=O)Nc2ccccc2-c2ccccc2)cc1 | 500 nM | > 50000 | 250 |
| C=CCn1nc([N+](=O)[O-])nc1Oc1ccc(Cl)cc1Cl | 250 nM | > 50000 | 130 |
| Cc1ccc(C)c(OC2CCN(C(=O)C(C)n3ccnc3)CC2)c1 (stereo not drawn) | 400 nM | > 50000 | 320 |
| Cc1sc(C)c(C(F)(F)F)c1CNCCCNc1cc(=O)c2ccccc2[nH]1 | 1000 nM | > 50000 | 500 |
| O=[N+]([O-])c1ccc(C2=CC(c3ccccc3)=NCCN2)cc1 | 1000 nM | 32000 | 250 |
| Cc1nc2c(-c3ncn[nH]3)cc(NC(=O)Cc3ccccc3)cn2c1C | 1000 nM | 6300 | 790 |
| Clc1ccc(OCCN2CCCCC2c2cccnc2)c(Cl)c1 (stereo not drawn) | 200 nM | > 50000 | 160 |
| Clc1ccc(CN2CCN(C3=NCCN3)CC2)cc1Cl | 10000 nM | > 50000 | 1000 |
| COc1ccc(-c2nc3ccncc3c(=O)n2CCOc2ccccc2)cc1 | 400 nM | > 50000 | 400 |
| Nc1cc(-c2ccc3ncnc(N4CCOCC4)c3c2)cnc1N | 5000 nM | 3200 | 1600 |
| Cc1c(C#N)c([N+](=O)[O-])nn1Cc1cccc(Cl)c1Cl | 100 nM | > 50000 | 40 |
| CCC1Oc2cc(S(=O)(=O)N(C)CC(=O)N3CCc4ccccc4C3)c(C)cc2NC1=O (stereo not drawn) | 250 nM | > 50000 | 250 |
| Cc1[nH]c2ccccc2c(=O)c1Cc1c(C)[nH]c2ccccc2c1=O | 3200 nM | > 50000 | 1000 |
| Cn1nccc1NC(=O)Cn1ccc(-c2ccncc2)n1 | > 50000 nM (inactive) | > 50000 | > 50000 |
| O=c1ccn(-c2ccc([N+](=O)[O-])cc2Cl)c2ccc(F)cc12 | 4000 nM | > 50000 | 1300 |
| COc1cnc2ccc(=O)n(CCN3CCC(NC(=O)c4ccc(Cl)cc4)CC3)c2c1 | 250 nM | 630 | 79 |
| Cc1ccc(S(=O)(=O)Nc2ccc(CN3CCN(C(=O)c4cccc(C)c4)CC3)cc2)cc1 | 320 nM | > 50000 | 320 |
| CC(C)(C)CC(=O)NCCc1csc(-c2ccc(F)cc2)n1 | 1000 nM | > 50000 | 790 |
| CC(=O)NCCNc1cc(-c2ccnc(Nc3cccc(Cl)c3)n2)ccn1 | 1600 nM | 400 | 160 |
| Cc1nc(C(=O)Nc2ccc3c(c2)OCO3)nn1-c1ccc(F)cc1 | 1300 nM | > 50000 | 1000 |
| CC(=Cc1ccccc1)CN1CCC(=O)N(Cc2cccnc2)CC1 | 500 nM | > 50000 | 500 |
| Cn1ccnc1CN1CCc2[nH]cnc2C1c1ccccc1OCc1ccccc1 (stereo not drawn) | > 50000 nM (inactive) | > 50000 | > 50000 |
| CS(=O)(=O)c1cccc(CNC(=O)c2cncc(N3CCN(c4ccc(F)cc4)CC3)c2)c1 | 400 nM | > 50000 | 250 |
| CC1CN(Cc2ccc(C#N)cc2)CCN1c1ccc(NC(=O)c2ccccc2F)cc1 (stereo not drawn) | > 50000 nM (inactive) | > 50000 | > 50000 |

| Compound | IC50 | IC50 [1] [nM] | IC50 [2] [nM] |
| --- | --- | --- | --- |
| NS(=O)(=O)c1ccc(Nc2ncc3cccc(OC4CCNCC4)c3n2)cc1 | 50 nM | 630 | 20 |
| Cc1ccc2ccc(C(Nc3ccccn3)c3cccnc3)c(O)c2n1 (stereo not drawn) | 200 nM | 32000 | 200 |
| CN(C)S(=O)(=O)c1cccc(CSc2nnc(-c3ccc4c(c3)OCO4)o2)c1 | 100 nM | > 50000 | 50 |
| Cc1cc(-c2cccc3ccccc23)nc2nc(N)nc(N)c12 | > 50000 nM (inactive) | > 50000 | 32000 |
| O=c1cc(NCCCNCc2cc(C(F)(F)F)cs2)[nH]c2ccccc12 | > 50000 nM (inactive) | 32000 | 5000 |
| Cc1ccccc1NS(=O)(=O)c1ccc2[nH]cc(C(=O)NC3CCCC(C)C3C)c(=O)c2c1 (stereo not drawn) | 6300 nM | 6300 | 3200 |
| CN(C)c1ccc(N)cc1CN(CC1CCCO1)S(C)(=O)=O (stereo not drawn) | > 50000 nM (inactive) | > 50000 | > 50000 |
| COc1ccc(S(=O)(=O)Nc2ccccc2OC)cc1NC(=O)CCCc1c[nH]c2ccccc12 | 1300 nM | > 50000 | 1000 |
| Cc1ccc(NC(C)C(=O)Nc2ccc(C#N)cc2)cc1S(=O)(=O)N1CCCCC1 (stereo not drawn) | 7900 nM | > 50000 | 7900 |
| COc1cccc(NS(=O)(=O)c2ccc3[nH]cc(C(=O)NCCC(C)C)c(=O)c3c2)c1 | 32000 nM | 13000 | 16000 |
| Cc1cc(NC(=O)C2CCCCC2)n(-c2nc3c(c(=O)[nH]2)CCC3)n1 | 500 nM | 2000 | 160 |
| O=C(NCC1CCCCC1)c1cc(=O)c2ccccc2o1 | 630 nM | 32000 | 500 |
| CCC(=O)Nc1ccccc1C(=O)Nc1ccccn1 | > 50000 nM (inactive) | > 50000 | > 50000 |
| O=C(CCCn1cnc([N+](=O)[O-])n1)Nc1cccc(Cl)c1 | 500 nM | > 50000 | 160 |
| O=C1NCCn2ccc(Nc3nc(NC4CCC(O)CC4)ncc3Cl)c21 (stereo not drawn) | 20000 nM | 400 | 3200 |
| CC(C)c1cc(Nc2cc(Cc3ccccc3)nc(NC3CCC(O)CC3)n2)n[nH]1 (stereo not drawn) | 79 nM | 6.3 | 32 |
| CS(=O)(=O)NC1CCC(Nc2ncc(Br)c(Nc3ccccc3C(N)=O)n2)CC1 (stereo not drawn) | 5000 nM | 500 | 2000 |
| O=C(c1ccc(O)c(Cl)c1)N1CCN(c2cnccn2)CC1 | > 50000 nM (inactive) | > 50000 | 10000 |
| O=C(NC1CCN(C2Cc3ccc(NS(=O)(=O)c4cc(F)cc(F)c4)cc3C2)CC1)C1CC1 (stereo not drawn) | > 50000 nM (inactive) | > 50000 | > 50000 |
| CC(CCc1ccccc1)NC(=O)CN(Cc1ccccn1)Cc1ccccn1 (stereo not drawn) | 10000 nM | > 79000 | 3200 |
| c1ccc(CNc2cccc3ccncc23)cc1 | 6300 nM | > 50000 | 5000 |
| Cc1ccccc1NS(=O)(=O)c1ccc2[nH]cc(C(=O)NC3CCCCC3)c(=O)c2c1 | 16000 nM | 25000 | 10000 |
| CS(=O)(=O)c1ccc(Nc2nccc(Nc3n[nH]c4ccc(F)cc34)n2)c(F)c1 | 32000 nM | 16000 | 4000 |

From PubChem BioAssay AID1159565 (GlaxoSmithKline (GSK), 2015)
